In experiment [1] the test system is human cervical tumor cell line HeLa (ATCC CCL-2). Kind of experiment: SAC-Formation - Paclitaxel-Induced Assay. The format is cell-based. To be noted: Homo sapiens, HeLa, 24 h, HeLa cells, paclitaxel 0.05 μM, test range 0.005 μM-20 μM, read-out: IC50 [mol/l] SAC-Formation - Paclitaxel-Induced Assay. Put shortly:
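HeLa cells incubated overnight at 37° C, then given paclitaxel (0.05 μM final) plus test compound (0.005–20 μM, 0.5% DMSO) together for 24 h at 37° C. Fixed cells stained for phospho-histone H3 Ser10 (mitotic cells) and Hoechst 33342 (cell count); imaging-derived mitotic index fitted by four-parameter Hill equation.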

For a further experiment, the target named is T1, CDK2/CycE (Homo sapiens, UniProt P24941).
T1 construct: GST; purchased ProQinase GmbH (Freiburg, Germany); host or cells: insect cells (Sf9)
Kind of experiment: CDK2/CycE kinase assay (TR-FRET). Type of experiment: biochemical. To be noted: avg, read-out: CDK2 avg (IC50 [mol/l]). A digest of the protocol:
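GST-tagged human CDK2 and CycE from Sf9 cells, preincubated 15 min with compound, then 25 min at 22° C. with 10 μM ATP and 0.75 μM biotinylated Rb-derived peptide (final). Phospho-substrate read by TR-FRET (anti-pRB pSer807/pSer811, Eu anti-mouse IgG, streptavidin-XL665), 665/620 nm ratio, normalised to no-inhibitor and no-enzyme controls.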
(Time-resolved FRET reads energy transfer from a long-lived donor to a nearby acceptor.)

For the compound `Cc1nsc(Nc2cnc3ccccc3n2)c1C(=O)Nc1ccc(C(N)=O)c(F)c1` [Example 201, N-(4-carbamoyl-3-fluorophenyl)-3-methyl-5-(quinoxalin-2-ylamino)-1,2-thiazole-4-carboxamide], the IC50 in experiment [1] is 0.22 µM; on CDK2/CycE, greater than 20 µM.

As for `Cc1nsc(Nc2cc(C#N)ccn2)c1C(=O)Nc1cccc(C(=O)OC(C)(C)C)c1` [Example 239, tert-butyl 3-[({5-[(4-cyanopyridin-2-yl)amino]-3-methyl-1,2-thiazol-4-yl}carbonyl)amino]benzoate], the IC50 in experiment [1] was 0.63 µM; at CDK2/CycE, greater than 20 µM.

Regarding `Cc1nsc(Nc2cc(C#N)ccn2)c1C(=O)Nc1cccc(NC(=O)C(C)(C)C)c1` [Example 183, 5-[(4-cyanopyridin-2-yl)amino]-N-{3-[(2,2-dimethylpropanoyl)amino]phenyl}-3-methyl-1,2-thiazole-4-carboxamide], the IC50 in experiment [1] is 4.9 µM; on CDK2/CycE, greater than 20 µM.

For the compound `Cc1nsc(Nc2cnc3ccccc3n2)c1C(=O)Nc1ccccc1S(C)(=O)=O` [Example 188, 3-methyl-N-[2-(methylsulfonyl)phenyl]-5-(quinoxalin-2-ylamino)-1,2-thiazole-4-carboxamide], the IC50 in experiment [1] was 10 µM; at CDK2/CycE, greater than 20 µM.

Take `Cc1nsc(Nc2cnccn2)c1C(=O)Nc1ccc(C(=O)OC(C)(C)C)cc1` [Example 184, tert-butyl 4-({[3-methyl-5-(pyrazin-2-ylamino)-1,2-thiazol-4-yl]carbonyl}amino)benzoate]: the results for the IC50 (in experiment [1]; at CDK2/CycE) were 0.14 µM and greater than 20 µM, respectively.

Turning to `Cc1nsc(Nc2ccc(C#N)cn2)c1C(=O)Nc1cccc(C(=O)OC(C)(C)C)c1` [Example 240, tert-butyl 3-[({5-[(5-cyanopyridin-2-yl)amino]-3-methyl-1,2-thiazol-4-yl}carbonyl)amino]benzoate], the IC50 in experiment [1] was 0.07 µM; on CDK2/CycE it was greater than 20 µM.

As to `Cc1nsc(Nc2cnc3ccccc3n2)c1C(=O)Nc1ccc(NC2CCN(C(=O)OC(C)(C)C)CC2)nc1` [Example 234, tert-butyl 4-{[5-({[3-methyl-5-(quinoxalin-2-ylamino)-1,2-thiazol-4-yl]carbonyl}amino)pyridin-2-yl]amino}piperidine-1-carboxylate], the figures for the IC50 (in experiment [1]; at CDK2/CycE) were 10 µM and greater than 20 µM, respectively.

For `Cc1nsc(Nc2cncc(C(F)(F)F)n2)c1C(=O)Nc1ccc(OC2CCN(C)CC2)nc1` [Example 219, 3-methyl-N-{6-[(1-methylpiperidin-4-yl)oxy]pyridin-3-yl}-5-{[6-(trifluoromethyl)pyrazin-2-yl]amino}-1,2-thiazole-4-carboxamide], the IC50 was 0.66 µM in experiment [1] and greater than 20 µM at CDK2/CycE.

Regarding `CNC(=O)c1ccc(NC(=O)c2c(C)nsc2Nc2ccc(C#N)cn2)cc1F` [Example 208, 5-[(5-cyanopyridin-2-yl)amino]-N-[3-fluoro-4-(methylcarbamoyl)phenyl]-3-methyl-1,2-thiazole-4-carboxamide], the IC50 in experiment [1] was 0.041 µM; at CDK2/CycE it was greater than 20 µM.

As to `COc1ccc(NC(=O)c2c(C)nsc2Nc2cnc3ccccc3n2)c(CC#N)n1` [Example 235, N-[2-(cyanomethyl)-6-methoxypyridin-3-yl]-3-methyl-5-(quinoxalin-2-ylamino)-1,2-thiazole-4-carboxamide], the IC50 in experiment [1] was 1.5 µM; at CDK2/CycE, greater than 20 µM.

Take `CNS(=O)(=O)c1ccc(NC(=O)c2c(C)nsc2Nc2cncc(C(F)(F)F)n2)cc1` [Example 211, 3-methyl-N-[4-(methylsulfamoyl)phenyl]-5-{[6-(trifluoromethyl)pyrazin-2-yl]amino}-1,2-thiazole-4-carboxamide]: the IC50 worked out at 0.047 µM in experiment [1] and 15 µM on CDK2/CycE.

For `CCN(CC)CCNC(=O)c1cccc(NC(=O)c2c(C)nsc2Nc2cnccn2)c1` [Example 247, N-(3-{[2-(diethylamino)ethyl]carbamoyl}phenyl)-3-methyl-5-(pyrazin-2-ylamino)-1,2-thiazole-4-carboxamide], the IC50 in experiment [1] is 0.14 µM; on CDK2/CycE, greater than 20 µM.

Take `Cc1nsc(Nc2cnc3ccccc3n2)c1C(=O)Nc1ccc(OC2CCNCC2)nc1` [Example 19, 3-Methyl-N-[6-(piperidin-4-yloxy)pyridin-3-yl]-5-(quinoxalin-2-ylamino)-1,2-thiazole-4-carboxamide]: the IC50 in experiment [1] was 2.1 µM; on CDK2/CycE, no less than 20 µM.

`Cc1nsc(Nc2cncc(C(F)(F)F)n2)c1C(=O)Nc1ccc(OCC2CCN(C(=O)OC(C)(C)C)CC2)nc1` [Example 226, tert-butyl 4-{[(5-{[(3-methyl-5-{[6-(trifluoromethyl)pyrazin-2-yl]amino}-1,2-thiazol-4-yl)carbonyl]amino}pyridin-2-yl)oxy]methyl}piperidine-1-carboxylate]: the values for the IC50 (in experiment [1]; at CDK2/CycE) were 0.21 µM and greater than 20 µM, respectively.

For `Cc1nsc(Nc2ccc(C#N)cn2)c1C(=O)Nc1ccc(OCCC(=O)OC(C)(C)C)nc1` [Example 199, tert-butyl 3-({5-[({5-[(5-cyanopyridin-2-yl)amino]-3-methyl-1,2-thiazol-4-yl}carbonyl)amino]pyridin-2-yl}oxy)propanoate], the IC50 in experiment [1] is 0.11 µM; on CDK2/CycE, greater than 20 µM.

`Cc1nsc(Nc2cnc3ccccc3n2)c1C(=O)Nc1ccc(NCCNC(=O)OC(C)(C)C)nc1` [Example 244, tert-butyl (2-{[5-({[3-methyl-5-(quinoxalin-2-ylamino)-1,2-thiazol-4-yl]carbonyl}amino)pyridin-2-yl]amino}ethyl)carbamate]: the IC50 in experiment [1] is 3.9 µM; at CDK2/CycE, greater than 20 µM.

Regarding `Cc1nsc(Nc2cnc3ccccc3n2)c1C(=O)Nc1ccc(OCCC(=O)OC(C)(C)C)nc1` [Example 198, tert-butyl 3-{[5-({[3-methyl-5-(quinoxalin-2-ylamino)-1,2-thiazol-4-yl]carbonyl}amino)pyridin-2-yl]oxy}propanoate], the IC50 in experiment [1] was 0.74 µM; at CDK2/CycE, greater than 20 µM.

For `Cc1nsc(Nc2cncc(C(F)(F)F)n2)c1C(=O)Nc1ccc(C(=O)NC2CCN(C(=O)OC(C)(C)C)CC2)cc1` [Example 222, tert-butyl 4-[(4-{[(3-methyl-5-{[6-(trifluoromethyl)pyrazin-2-yl]amino}-1,2-thiazol-4-yl)carbonyl]amino}benzoyl)amino] piperidine-1-carboxylate], the IC50 in experiment [1] was 0.82 µM; at CDK2/CycE, greater than 20 µM.

As to `Cc1nsc(Nc2cnc3ccccc3n2)c1C(=O)Nc1ccc(Oc2cccnc2)nc1` [Example 231, 3-methyl-N-[6-(pyridin-3-yloxy)pyridin-3-yl]-5-(quinoxalin-2-ylamino)-1,2-thiazole-4-carboxamide], the IC50 in experiment [1] is 0.26 µM; on CDK2/CycE, greater than 20 µM.

As for `Cc1nsc(Nc2cnc3ccccc3n2)c1C(=O)Nc1ccc(C(=O)OC(C)(C)C)cc1` [Example 181, tert-butyl 4-({[3-methyl-5-(quinoxalin-2-ylamino)-1,2-thiazol-4-yl]carbonyl}amino)benzoate], the figures for the IC50 (in experiment [1]; at CDK2/CycE) were 0.1 µM and greater than 20 µM, respectively.

For the compound `Cc1nsc(Nc2cnc3ccccc3n2)c1C(=O)Nc1ccc(C(=O)O)cc1` [Example 187, 4-({[3-methyl-5-(quinoxalin-2-ylamino)-1,2-thiazol-4-yl]carbonyl}amino)benzoic acid], the IC50 in experiment [1] is 1.4 µM; on CDK2/CycE, greater than 20 µM.

For `CNC(=O)c1ccc(NC(=O)c2c(C)nsc2Nc2cnc3ccccc3n2)cc1F` [Example 207, N-[3-fluoro-4-(methylcarbamoyl)phenyl]-3-methyl-5-(quinoxalin-2-ylamino)-1,2-thiazole-4-carboxamide], the results for the IC50 (in experiment [1]; at CDK2/CycE) were 0.076 µM and greater than 20 µM, respectively.

Regarding `Cc1nsc(Nc2cncc(C(F)(F)F)n2)c1C(=O)Nc1ccc(OCCCNC(=O)OC(C)(C)C)nc1` [Example 190, tert-butyl {3-[(5-{[(3-methyl-5-{[6-(trifluoromethyl)pyrazin-2-yl]amino}-1,2-thiazoL-4-yl)carbonyl]amino}pyridin-2-yl)oxy]propyl}carbamate], the IC50 in experiment [1] was 0.089 µM; at CDK2/CycE, greater than 20 µM.

With `Cc1nsc(Nc2cncc(C(F)(F)F)n2)c1C(=O)Nc1ccc(OC2CCN(CCF)CC2)c(F)c1` [Example 223, N-(3-fluoro-4-{[1-(2-fluoroethyl)piperidin-4-yl]oxy}phenyl)-3-methyl-5-{[6-(trifluoromethyl)pyrazin-2-yl]amino}-1,2-thiazole-4-carboxamide], the values for the IC50 (in experiment [1]; on CDK2/CycE) were 0.11 µM and greater than 20 µM, respectively.

`Cc1nsc(Nc2cnc3ccccc3n2)c1C(=O)Nc1ccc(OC2CCN(CC(F)F)CC2)nc1` [Example 20, N-(6-{[1-(2,2-difluoroethyl)piperidin-4-yl]oxy}pyridin-3-yl)-3-methyl-5-(quinoxalin-2-ylamino)-1,2-thiazole-4-carboxamide]: the IC50 in experiment [1] is 0.18 µM; at CDK2/CycE, no less than 20 µM.

Consider `CC(=O)Nc1cc(NC(=O)c2c(C)nsc2Nc2cnccn2)ccc1F` [Example 205, N-(3-acetamido-4-fluorophenyl)-3-methyl-5-(pyrazin-2-ylamino)-1,2-thiazole-4-carboxamide], for which the IC50 was 20 µM in experiment [1] and greater than 20 µM at CDK2/CycE.

With `Cc1nsc(Nc2cnc(C(F)(F)F)cn2)c1C(=O)Nc1ccc(OCC2CCN(C(=O)OC(C)(C)C)CC2)nc1` [Example 227, tert-butyl 4-{[(5-{[(3-methyl-5-{[5-(trifluoromethyl)pyrazin-2-yl]amino}-1,2-thiazol-4-yl)carbonyl]amino}pyridin-2-yl)oxy]methyl}piperidine-1-carboxylate], the IC50 in experiment [1] was 0.3 µM; at CDK2/CycE, greater than 20 µM.
